Experimental data published in US20260262643A1, “HERBICIDAL BENZOXAZINES” (FMC CORPORATION, priority 2022, published 2026).

Legend:
[1] = tested on: barnyardgrass; test: Test C preemergence; assay type: in vivo, Echinochloa crusgalli; conditions: 0 to 100 scale (0 no effect, 100 complete control); for Barnyardgrass plant response rating: preemergence
Outline: (§1)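 Visual injury score, 0–100 (100 = complete control), taken 10 days after treatment relative to untreated controls. Pre: directed spray onto soil over sown seeds. Post: foliar spray at one- to two-leaf stage, 2–10 cm. Solvent/surfactant formulation; loam–sand soil; greenhouse.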

[2] = tested on: blackgrass; test: Test C preemergence; assay type: in vivo, Alopecurus myosuroides; conditions: 0 to 100 scale (0 no effect, 100 complete control); for Blackgrass plant response rating: preemergence
Outline: as §1

[3] = tested on: corn; test: Test C preemergence; assay type: in vivo, Zea mays; conditions: preemergence, 0 to 100 scale (0 no effect, 100 complete control)
Outline: as §1

[4] = tested on: green foxtail; test: Test C preemergence; assay type: in vivo, Setaria viridis; conditions: preemergence, 0 to 100 scale (0 no effect, 100 complete control)
Outline: as §1

[5] = tested on: kochia; test: Test C preemergence; assay type: in vivo, Bassia scoparia; conditions: preemergence, 0 to 100 scale (0 no effect, 100 complete control)
Outline: as §1

[6] = tested on: oat, wild; test: Test C preemergence; assay type: in vivo, Avena fatua; conditions: preemergence, 0 to 100 scale (0 no effect, 100 complete control)
Outline: as §1

[7] = tested on: pigweed, palmer; test: Test C preemergence; assay type: in vivo, Amaranthus palmeri; conditions: preemergence, 0 to 100 scale (0 no effect, 100 complete control)
Outline: as §1

[8] = tested on: ragweed; test: Test C preemergence; assay type: in vivo, Ambrosia artemisiifolia; conditions: preemergence, 0 to 100 scale (0 no effect, 100 complete control)
Outline: as §1

[9] = tested on: ryegrass, Italian; test: Test C preemergence; assay type: in vivo, Lolium multiflorum; conditions: preemergence, 0 to 100 scale (0 no effect, 100 complete control)
Outline: as §1

[10] = tested on: soybean; test: Test C preemergence; assay type: in vivo, Glycine max; conditions: preemergence, 0 to 100 scale (0 no effect, 100 complete control)
Outline: as §1

[11] = tested on: wheat; test: Test C preemergence; assay type: in vivo, Triticum aestivum; conditions: preemergence, 0 to 100 scale (0 no effect, 100 complete control)
Outline: as §1

[12] = tested on: barnyardgrass; test: Test C postemergence; assay type: in vivo, Echinochloa crusgalli; conditions: 10 days
Outline: as §1

[13] = tested on: blackgrass; test: Test C postemergence; assay type: in vivo, Alopecurus myosuroides; conditions: 10 days
Outline: as §1

[14] = tested on: corn; test: Test C postemergence; assay type: in vivo, Zea mays; conditions: 10 days
Outline: as §1

[15] = tested on: green foxtail; test: Test C postemergence; assay type: in vivo, Setaria viridis; conditions: 10 days
Outline: as §1

[16] = tested on: kochia; test: Test C postemergence; assay type: in vivo, Bassia scoparia; conditions: postemergence, 10 days
Outline: as §1

[17] = tested on: oat, wild; test: Test C postemergence; assay type: in vivo, Avena fatua; conditions: postemergence, 10 days
Outline: as §1

[18] = tested on: pigweed, palmer; test: Test C postemergence; assay type: in vivo, Amaranthus palmeri; conditions: postemergence, 10 days
Outline: as §1

[19] = tested on: ragweed; test: Test C postemergence; assay type: in vivo, Ambrosia artemisiifolia; conditions: postemergence, 10 days
Outline: as §1

[20] = tested on: ryegrass, Italian; test: Test C postemergence; assay type: in vivo, Lolium multiflorum; conditions: postemergence, 10 days
Outline: as §1

[21] = tested on: soybean; test: Test C postemergence; assay type: in vivo, Glycine max; conditions: postemergence, 10 days
Outline: as §1

[22] = tested on: wheat; test: Test C postemergence; assay type: in vivo, Triticum aestivum; conditions: postemergence, 10 days
Outline: as §1

[23] = tested on: galium; test: Test C postemergence; assay type: in vivo, Galium aparine; conditions: 10 days
Outline: as §1

[24] = tested on: horseweed; test: Test C postemergence; assay type: in vivo, Erigeron canadensis; conditions: 10 days
Outline: as §1

[25] = tested on: barnyardgrass; test: Test D flooded paddy test; assay type: in vivo, Echinochloa crus-galli; conditions: 250 g ai/ha, applied to paddy water, visual rating after 13 to 14 days, scale 0 to 100 (0 no effect, 100 complete control)
Outline: (§2)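 Rating scale 0–100 (0 no effect, 100 complete control), visual, versus controls. Readout at 13–14 days after in-water application to 2-leaf plants in pots flooded 3 cm deep.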

[26] = tested on: ducksalad; test: Test D flooded paddy test; assay type: in vivo, Heteranthera limosa; conditions: 250 g ai/ha, applied to paddy water, visual rating after 13 to 14 days, scale 0 to 100 (0 no effect, 100 complete control)
Outline: as §2

[27] = tested on: rice; test: Test D flooded paddy test; assay type: in vivo, Oryza sativa; conditions: 250 g ai/ha, applied to paddy water, visual rating after 13 to 14 days, scale 0 to 100 (0 no effect, 100 complete control)
Outline: as §2

[28] = tested on: sedge, umbrella; test: Test D flooded paddy test; assay type: in vivo, Cyperus difformis; conditions: 250 g ai/ha, applied to paddy water, visual rating after 13 to 14 days, scale 0 to 100 (0 no effect, 100 complete control)
Outline: as §2

[29] = Preemergence, 500 g ai/ha, visual rating after 10 days
[30] = 125 g ai/ha, postemergence, 0 to 100 scale, 0 no effect, 100 complete control
[31] = Postemergence, 500 g ai/ha, visual 0 to 100 scale (0 no effect, 100 complete control)
[32] = 125 g ai/ha, 0 to 100 scale, 0 no effect, 100 complete control
[33] = 500 g ai/ha, postemergence, 0 to 100 scale (0 no effect, 100 complete control)
[34] = 500 g ai/ha, 0 to 100 scale (0 no effect, 100 complete control)

For `CCc1ncn(-c2ccc(OC)c(C(=S)N3C[C@H](C)Oc4c(C)cccc43)c2)n1` [Compound 271], the “Plant response rating, Barnyardgrass” value [1, 29] was 100, the “Barnyardgrass plant response rating” value ([1]; Test C, 125 g ai/ha) was 100 and the “Plant response rating, Blackgrass” value [2, 29] was 60. The “Blackgrass plant response rating” value ([2]; Test C, 125 g ai/ha) was 20, the “Corn plant response rating” value ([3]; 500 g ai/ha) was 0 and the “Corn plant response rating” value ([3]; Test C, 125 g ai/ha) was 0. For the same compound, the “Foxtail, Green plant response rating” value ([4]; 500 g ai/ha) was 100, the “Foxtail, Green plant response rating” value ([4]; Test C, 125 g ai/ha) was 100 and the “Kochia plant response rating” value ([5]; 500 g ai/ha) was 100. For the same compound, the “Kochia plant response rating” value ([5]; Test C, 125 g ai/ha) was 30, the “Oat, Wild plant response rating” value ([6]; 500 g ai/ha) was 80 and the “Oat, Wild plant response rating” value ([6]; Test C, 125 g ai/ha) was 30. For the same compound, the “Pigweed, Palmer plant response rating” value ([7]; 500 g ai/ha) was 100, the “Pigweed, Palmer plant response rating” value ([7]; Test C, 125 g ai/ha) was 100 and the “Ragweed plant response rating” value ([8]; 500 g ai/ha) was 100. The “Ragweed plant response rating” value ([8]; Test C, 125 g ai/ha) was 10, the “Ryegrass, Italian plant response rating” value ([9]; 500 g ai/ha) was 90 and the “Ryegrass, Italian plant response rating” value ([9]; Test C, 125 g ai/ha) was 80. For the same compound, the “Soybean plant response rating” value ([10]; 500 g ai/ha) was 100, the “Soybean plant response rating” value ([10]; Test C, 125 g ai/ha) was 70 and the “Wheat plant response rating” value ([11]; 500 g ai/ha) was 80. For the same compound, the “Wheat plant response rating” value ([11]; Test C, 125 g ai/ha) was 20, the “Plant response rating, Barnyardgrass” value [12, 30] was 70 and the “Plant response rating, Barnyardgrass” value [12, 31] was 90. For the same compound, the “Plant response rating, Blackgrass” value [13, 30] was 70, the “Plant response rating, Blackgrass” value [13, 31] was 90 and the “Plant response rating, Corn” value [14, 30] was 50. For the same compound, the “Plant response rating, Corn” value [14, 31] was 90, the “Plant response rating, Foxtail, Green” value [15, 30] was 90 and the “Plant response rating, Foxtail, Green” value [15, 31] was 90. For the same compound, the “Plant response rating, Kochia” value [16, 32] was 60, the “Plant response rating, Oat, Wild” value [17, 32] was 80 and the “Plant response rating, Pigweed, Palmer” value [18, 32] was 90. The “Plant response rating, Ragweed” value [19, 32] was 50, the “Plant response rating, Ryegrass, Italian” value [20, 32] was 60 and the “Plant response rating, Soybean” value [21, 32] was 100. For the same compound, the “Plant response rating, Wheat” value [22, 32] was 70, the “Plant response rating, Galium” value [23, 30] was 90 and the “Plant response rating, Galium” value [23, 31] was 100. The “Plant response rating, Horseweed” value [24, 30] was 50, the “Plant response rating, Horseweed” value [24, 31] was 90 and the “Plant response rating, Barnyardgrass (Flood)” value [25] was 0. The “Plant response rating, Ducksalad (Flood)” value [26] was 85, the “Plant response rating, Rice (Flood)” value [27] was 10 and the “Plant response rating, Sedge, Umbrella (Flood)” value [28] was 100.

For `CC(C)c1ncn(-c2cccc(C(=O)N3CC(C(F)(F)F)Oc4c(Cl)cccc43)c2)n1` (single isomer, unassigned) [Compound 288], the “Barnyardgrass plant response rating” value ([1]; 500 g ai/ha) was 30, the “Barnyardgrass plant response rating” value ([1]; Test C, 125 g ai/ha) was 0 and the “Blackgrass plant response rating” value ([2]; 500 g ai/ha) was 60. For the same compound, the “Blackgrass plant response rating” value ([2]; Test C, 125 g ai/ha) was 10, the “Corn plant response rating” value ([3]; 500 g ai/ha) was 10 and the “Corn plant response rating” value ([3]; Test C, 125 g ai/ha) was 0. For the same compound, the “Foxtail, Green plant response rating” value ([4]; 500 g ai/ha) was 70, the “Foxtail, Green plant response rating” value ([4]; Test C, 125 g ai/ha) was 0 and the “Kochia plant response rating” value ([5]; 500 g ai/ha) was 50. The “Kochia plant response rating” value ([5]; Test C, 125 g ai/ha) was 10, the “Oat, Wild plant response rating” value ([6]; 500 g ai/ha) was 20 and the “Oat, Wild plant response rating” value ([6]; Test C, 125 g ai/ha) was 20. The “Pigweed, Palmer plant response rating” value ([7]; 500 g ai/ha) was 80, the “Pigweed, Palmer plant response rating” value ([7]; Test C, 125 g ai/ha) was 50 and the “Ragweed plant response rating” value ([8]; 500 g ai/ha) was 0. For the same compound, the “Ragweed plant response rating” value ([8]; Test C, 125 g ai/ha) was 0, the “Ryegrass, Italian plant response rating” value ([9]; 500 g ai/ha) was 80 and the “Ryegrass, Italian plant response rating” value ([9]; Test C, 125 g ai/ha) was 80. For the same compound, the “Soybean plant response rating” value ([10]; 500 g ai/ha) was 40, the “Soybean plant response rating” value ([10]; Test C, 125 g ai/ha) was 40 and the “Wheat plant response rating” value ([11]; 500 g ai/ha) was 20. The “Wheat plant response rating” value ([11]; Test C, 125 g ai/ha) was 0, the “Plant response rating, Barnyardgrass” value [12, 30] was 10 and the “Plant response rating, Barnyardgrass” value [12, 33] was 10. The “Plant response rating, Blackgrass” value [13, 30] was 0, the “Plant response rating, Blackgrass” value [13, 33] was 10 and the “Plant response rating, Corn” value [14, 30] was 0. The “Plant response rating, Corn” value [14, 33] was 10, the “Plant response rating, Foxtail, Green” value [15, 30] was 10 and the “Plant response rating, Foxtail, Green” value [15, 33] was 20. For the same compound, the “Plant response rating, Kochia” value [16, 32] was 40, the “Plant response rating, Kochia” value [16, 34] was 80 and the “Plant response rating, Oat, Wild” value [17, 32] was 0. The “Plant response rating, Oat, Wild” value [17, 34] was 0, the “Plant response rating, Pigweed, Palmer” value [18, 32] was 10 and the “Plant response rating, Pigweed, Palmer” value [18, 34] was 50. The “Plant response rating, Ragweed” value [19, 32] was 30, the “Plant response rating, Ragweed” value [19, 34] was 30 and the “Plant response rating, Ryegrass, Italian” value [20, 32] was 0. For the same compound, the “Plant response rating, Ryegrass, Italian” value [20, 34] was 20, the “Plant response rating, Soybean” value [21, 32] was 60 and the “Plant response rating, Soybean” value [21, 34] was 80. For the same compound, the “Plant response rating, Wheat” value [22, 32] was 10, the “Plant response rating, Wheat” value [22, 34] was 20 and the “Plant response rating, Galium” value [23, 30] was 60. The “Plant response rating, Galium” value [23, 33] was 50, the “Plant response rating, Horseweed” value [24, 30] was 0 and the “Plant response rating, Horseweed” value [24, 33] was 0. For the same compound, the “Plant response rating, Barnyardgrass (Flood)” value [25] was 0, the “Plant response rating, Ducksalad (Flood)” value [26] was 0 and the “Plant response rating, Rice (Flood)” value [27] was 0. For the same compound, the “Plant response rating, Sedge, Umbrella (Flood)” value [28] was 0.
